The source of these data is ChEMBL document CHEMBL1134446, “Polyamine analogue antidiarrheals: a structure-activity study” (J Med Chem, 2001).

For data set [1], the system named is Canis familiaris. Description: Spermidine Distribution in liver was determined after DESPM dosing of 6.0 mg/kg/day for 4.5 days in dog(cu dose-52.4) and sacrificed at 10 days PLD(cu dose-27 mg/kg). Format: ADME, organism-based, Canis lupus familiaris. The note with it: in vivo, 240 h.
Data set [2] has as its system Canis familiaris. The experiment in a line: Spermine Distribution in liver was determined after DESPM dosing of 4 mg/kg/day for 13 days in dog(cu dose-52.4) and sacrificed at 75 days PLD(cu dose-52 mg/kg). Particulars: in vivo, 1800 h. Format: ADME, organism-based, Canis lupus familiaris.
For data set [3], the system named is Canis familiaris. The experiment in a line: Spermidine Distribution in kidney was determined after DESPM dosing of 1.87 mg/kg/day for 28 days in dog(cu dose-52.4) and sacrificed at 75 days PLD(cu dose-52.4 mg/kg). Format: ADME, organism-based, Canis lupus familiaris. The note with it: in vivo, 1800 h.
The subject of data set [4] is Canis familiaris. Description: Spermine Distribution in liver was determined after DESPM dosing of 4 mg/kg/day for 13 days in dog(cu dose-52.4) and sacrificed at 10 days PLD(cu dose-52 mg/kg). Particulars: in vivo, 240 h. In kind it is ADME, organism-based, Canis lupus familiaris.
Data set [5] has as its system Canis familiaris. Description: MESPM/MEHSPH Distribution in kidney was determined after DESPM dosing of 8.0 mg/kg/day for 4.5 days in dog(cu dose-52.4) and sacrificed at 75 days PLD(cu dose-36 mg/kg). In kind it is ADME, organism-based, Canis lupus familiaris. The note with it: in vivo, 1800 h.
Data set [6] has as its system Rattus norvegicus. Description: Stool output of rat over the 6-h collection period when a dose of 0 mg/kg (0 administered. In kind it is functional.
Data set [7] relates to Rattus norvegicus. Description: Stool output of rat over the 6-h collection period when a dose of 9.4 mg/kg (23.3 administered. In kind it is functional.
The subject of data set [8] is Canis familiaris. The experiment in a line: putrescine Distribution in liver was determined after DESPM dosing of 4 mg/kg/day for 13 days in dog(cu dose-52.4) and sacrificed at 75 days PLD(cu dose-52 mg/kg). Format: ADME, organism-based, Canis lupus familiaris. The note with it: in vivo, 1800 h.
Data set [9] deals with Canis familiaris. Description: putrescine Distribution in liver was determined after DESPM dosing of 1.87 mg/kg/day for 28 days in dog(cu dose-52.4) and sacrificed at 10 days PLD(cu dose-52.4 mg/kg). Format: ADME, organism-based, Canis lupus familiaris. Particulars: in vivo, 240 h.
The test system of data set [10] is Canis familiaris. Description: MESPM/MEHSPH Distribution in liver was determined after DESPM dosing of 6.0 mg/kg/day for 4.5 days in dog(cu dose-52.4) and sacrificed at 10 days PLD(cu dose-27 mg/kg). Format: ADME, organism-based, Canis lupus familiaris. Particulars: in vivo, 240 h.
In data set [11] the test system is Rattus norvegicus. Description: Percent reduction was determined by using the ratio of mean of treated animal to that of control animal at a dose of 14.3 mg/kg. In kind it is functional.
The subject of data set [12] is Canis familiaris. The experiment in a line: Spermidine Distribution in liver was determined after DESPM dosing of 4 mg/kg/day for 13 days in dog(cu dose-52.4) and sacrificed at 10 days PLD(cu dose-52 mg/kg). In kind it is ADME, organism-based, Canis lupus familiaris. The note with it: in vivo, 240 h.
For data set [13], the system named is Rattus norvegicus. The experiment in a line: Percent reduction was determined by using the ratio of mean of treated animal to that of control animal at a dose of 4.7 mg/kg. Format: functional.
Data set [14] has as its system Canis familiaris. Description: Spermidine Distribution in liver was determined after DESPM dosing of 4 mg/kg/day for 13 days in dog(cu dose-52.4) and sacrificed at 75 days PLD(cu dose-52 mg/kg). Format: ADME, organism-based, Canis lupus familiaris. The note with it: in vivo, 1800 h.
Data set [15] relates to Canis familiaris. Description: Spermidine Distribution in kidney was determined after DESPM dosing of 4 mg/kg/day for 13 days in dog(cu dose-52.4) and sacrificed at 10 days PLD(cu dose-52 mg/kg). Format: ADME, organism-based, Canis lupus familiaris. The note with it: in vivo, 240 h.
Data set [16] has as its system Canis familiaris. Description: MESPM/MEHSPH Distribution in liver was determined after DESPM dosing of 4 mg/kg/day for 13 days in dog(cu dose-52.4) and sacrificed at 75 days PLD(cu dose-52 mg/kg). In kind it is ADME, organism-based, Canis lupus familiaris. The note with it: in vivo, 1800 h.
Data set [17] concerns Canis familiaris. The experiment in a line: MESPM/MEHSPH Distribution in liver was determined after DESPM dosing of 8.0 mg/kg/day for 4.5 days in dog(cu dose-52.4) and sacrificed at 10 days PLD(cu dose-36 mg/kg). In kind it is ADME, organism-based, Canis lupus familiaris. Particulars: in vivo, 240 h.
Data set [18] has as its system Canis familiaris. Description: Spermidine Distribution in kidney was determined after DESPM dosing of 1.87 mg/kg/day for 28 days in dog(cu dose-52.4) and sacrificed at 10 days PLD(cu dose-52.4 mg/kg). In kind it is ADME, organism-based, Canis lupus familiaris. Particulars: in vivo, 240 h.
Data set [19] deals with Canis familiaris. Description: putrescine Distribution in kidney was determined after DESPM dosing of 4.0 mg/kg/day for 13 days in dog and sacrificed at 75 days PLD(cu dose-52 mg/kg). In kind it is ADME, organism-based, Canis lupus familiaris. Particulars: in vivo, 1800 h.
Data set [20] concerns Canis familiaris. Description: Spermidine Distribution in kidney was determined after DESPM dosing of 6.0 mg/kg/day for 4.5 days in dog(cu dose-52.4) and sacrificed at 10 days PLD(cu dose-27 mg/kg). Format: ADME, organism-based, Canis lupus familiaris. Particulars: in vivo, 240 h.
Data set [21] concerns Canis familiaris. Description: putrescine Distribution in kidney was determined after DESPM dosing of 8.0 mg/kg/day for 4.5 days in dog and sacrificed at 10 days PLD(cu dose-36 mg/kg). In kind it is ADME, organism-based, Canis lupus familiaris. Particulars: in vivo, 240 h.
For data set [22], the system named is Canis familiaris. Description: Distribution in liver was determined after DESPM dosing of 8.0 mg/kg/day for 4.5 days in dog(cu dose-52.4) and sacrificed at 75 days PLD(cu dose-36 mg/kg). Format: ADME, organism-based, Canis lupus familiaris. The note with it: in vivo, 1800 h.
Data set [23] concerns Canis familiaris. Description: Distribution in liver was determined after DESPM dosing of 6.0 mg/kg/day for 4.5 days in dog(cu dose-52.4) and sacrificed at 10 days PLD(cu dose-27 mg/kg). In kind it is ADME, organism-based, Canis lupus familiaris. Particulars: in vivo, 240 h.
In data set [24] the test system is Canis familiaris. Description: putrescine Distribution in liver was determined after DEHSPM dosing of 2.0 mg/kg/day for 29 days in dog(cu dose-52.4) and sacrificed at 10 days PLD([…]). Format: ADME, organism-based, Canis lupus familiaris. The note with it: in vivo, 240 h.
For data set [25], the system named is Canis familiaris. The experiment in a line: Distribution in liver was determined after DEHSPM dosing of 2.0 mg/kg/day for 29 days in dog(cu dose-52.4) and sacrificed at 10 days PLD(cu dose-22 mg/kg). Format: ADME, organism-based, Canis lupus familiaris. The note with it: in vivo, 240 h.
Data set [26] concerns Canis familiaris. The experiment in a line: Spermine Distribution in kidney was determined after DEHSPM dosing of 2.0 mg/kg/day for 29 days in dog(cu dose-52.4) and sacrificed at 10 days PLD(cu dose-22 mg/kg). Format: ADME, organism-based, Canis lupus familiaris. Particulars: in vivo, 240 h.
Data set [27] deals with Canis familiaris. Description: MESPM/MEHSPH Distribution in kidney was determined after DEHSPM dosing of 2.0 mg/kg/day for 29 days in dog(cu dose-52.4) and sacrificed at 10 days PLD(cu dose-58 mg/kg). Particulars: in vivo, 240 h. Format: ADME, organism-based, Canis lupus familiaris.
Data set [28] relates to Canis familiaris. Description: Distribution in kidney was determined after DESPM dosing of 8.0 mg/kg/day for 4.5 days in dog(cu dose-52.4) and sacrificed at 75 days PLD(cu dose-36 mg/kg). In kind it is ADME, organism-based, Canis lupus familiaris. Particulars: in vivo, 1800 h.
Data set [29] concerns Canis familiaris. The experiment in a line: Spermine Distribution in liver was determined after DEHSPM dosing of 2.0 mg/kg/day for 29 days in dog(cu dose-52.4) and sacrificed at 10 days PLD(cu dose-58 mg/kg). Format: ADME, organism-based, Canis lupus familiaris. Particulars: in vivo, 240 h.
For data set [30], the system named is Canis familiaris. Description: putrescine Distribution in liver was determined after DEHSPM dosing of 2.0 mg/kg/day for 29 days in dog(cu dose-52.4) and sacrificed at 10 days PLD(cu dose-58 mg/kg). In kind it is ADME, organism-based, Canis lupus familiaris. Particulars: in vivo, 240 h.
The test system of data set [31] is Canis familiaris. The experiment in a line: MESPM/MEHSPH Distribution in liver was determined after DEHSPM dosing of 2.0 mg/kg/day for 29 days in dog(cu dose-52.4) and sacrificed at 10 days PLD(cu dose-58 mg/kg). Format: ADME, organism-based, Canis lupus familiaris. The note with it: in vivo, 240 h.
In data set [32] the test system is Canis familiaris. Description: putrescine Distribution in kidney was determined after DEHSPM dosing of 2.0 mg/kg/day for 29 days in dog(cu dose-52.4) and sacrificed at 10 days PLD(cu dose-22 mg/kg). In kind it is ADME, organism-based, Canis lupus familiaris. The note with it: in vivo, 240 h.

SMILES strings stand for the structures. “And” between values parts separate entries of the source, which are not always exact repeats. Equal entries are not always repeated.

For the molecule `CCNCCCNCCCCNCCCNCC` [BIS(ETHYL)SPERMINE], the “Wet weight of tissue” value amounted to 181 nM/g in the data set with Canis familiaris [1]; 886 nM/g in the data set with Canis familiaris [2]; 87 nM/g in the data set on Canis familiaris [3]; 462 nM/g with Canis familiaris [4]; 0 nM/g with Canis familiaris [5]; 62 nM/g in the data set on Canis familiaris [8]. Further, the “Wet weight of tissue” value came to 86 nM/g in the data set with Canis familiaris [9]; 23 nM/g in the data set with Canis familiaris [10]; 176 nM/g in the data set with Canis familiaris [12]; 264 nM/g with Canis familiaris [14]; 82 nM/g with Canis familiaris [15]; 0 nM/g in the data set with Canis familiaris [16]. Also, the “Wet weight of tissue” value in the data set with Canis familiaris [17] worked out at 21 nM/g; with Canis familiaris [18] it was 69 nM/g; in the data set on Canis familiaris [19] it was 7 nM/g; in the data set with Canis familiaris [20], 60 nM/g; in the data set with Canis familiaris [21], 20 nM/g. The Stool output is 7.5 g (350g of rat weight)-1 in the data set on Rattus norvegicus [6] and <0.6 g (350g of rat weight)-1 in the data set on Rattus norvegicus [7]. Moreover, the Reduction is 66% and 92% with Rattus norvegicus [11]; 37% and 60% in the data set with Rattus norvegicus [13].
On to `CCNCCCCNCCCCNCCCCNCC` [DIETHYLHOMOSPERMINE], for which the “Wet weight of tissue” value with Canis familiaris [22] worked out at 0 nM/g; in the data set with Canis familiaris [23], 30 nM/g; in the data set with Canis familiaris [24], 34 nM/g; with Canis familiaris [25], 0 nM/g; in the data set with Canis familiaris [26], 611 nM/g; with Canis familiaris [27], 78 nM/g. Moreover, the “Wet weight of tissue” value with Canis familiaris [28] was found to be 0 nM/g; with Canis familiaris [29], 108 nM/g; in the data set on Canis familiaris [30], 19 nM/g; in the data set on Canis familiaris [31], 72 nM/g; in the data set on Canis familiaris [32] it was 0 nM/g.
